Laboratory results as given in ChEMBL document CHEMBL4251565, “Functionalized 2,1-benzothiazine 2,2-dioxides as new inhibitors of Dengue NS5 RNA-dependent RNA polymerase” (Eur J Med Chem, 2018).
Calls of active or inactive are those of the source. The calls are words filed in the database; no cut-off is given here.

Key:
[1] = tested on: O=C(OC1=CS(=O)(=O)Nc2ccc(Oc3ccccc3Br)cc21)c1ccc(F)c(F)c1; test: Mixed type inhibition of DENV3 NS5 RdRp using increasing concentration of ss-RNA PolyC as template assessed as enzyme Vmax after 1 hr in presence of GTP substrate by Lineweaver-Burk double reciprocal plot analysis; conditions: dengue virus type 3
[2] = tested on: O=C(OC1=CS(=O)(=O)Nc2ccc(Oc3ccccc3Br)cc21)c1ccc(F)c(F)c1; test: Mixed type inhibition of DENV3 NS5 RdRp using increasing concentration of ss-RNA PolyC as template assessed as Km for substrate after 1 hr in presence of GTP substrate after 1 hr by Lineweaver-Burk double reciprocal plot analysis; conditions: dengue virus type 3
[3] = tested on: O=C(OC1=CS(=O)(=O)Nc2ccc(Oc3ccccc3Br)cc21)c1ccc(F)c(F)c1; test: Mixed type inhibition of DENV3 NS5 RdRp using increasing concentration of GTP as substrate assessed as enzyme Vmax after 1 hr in presence of ss-RNA PolyC template by Lineweaver-Burk double reciprocal plot analysis; conditions: dengue virus type 3
[4] = tested on: O=C(OC1=CS(=O)(=O)Nc2ccc(Oc3ccccc3Br)cc21)c1ccc(F)c(F)c1; test: Mixed type inhibition of DENV3 NS5 RdRp using increasing concentration of GTP as substrate assessed as Km for substrate after 1 hr in presence of ss-RNA PolyC template by Lineweaver-Burk double reciprocal plot analysis; conditions: dengue virus type 3
[5] = target: Nonstructural protein 5 (Dengue virus) (UniProt V5TFZ2); test: Binding affinity to DENV3 NT-647-NHS labeled NS5 RdRp after 1 hr in presence of ss-RNA PolyC as template and GTP as substrate by microscale thermophoresis method; conditions: dengue virus type 3
[6] = tested on: dengue virus type 2; test: Antiviral activity against DENV2 clinical strain infected in African green monkey Vero E6 cells assessed as decrease in viral RNA levels up to 20 uM by qRT-PCR method; assay type: functional, organism-based; conditions: Vero C1008
[7] = tested on: West Nile virus; test: Antiviral activity against WNV clinical strain infected in African green monkey Vero E6 cells assessed as decrease in viral RNA levels up to 20 uM by qRT-PCR method; assay type: functional, organism-based; conditions: Vero C1008
[8] = tested on: dengue virus type 3; test: Antiviral activity against DENV3 clinical strain infected in African green monkey Vero E6 cells assessed as decrease in viral RNA levels up to 20 uM by qRT-PCR method; assay type: functional, organism-based; conditions: Vero C1008
[9] = tested on: Zika virus; test: Antiviral activity against Zika virus clinical strain infected in African green monkey Vero E6 cells assessed as decrease in viral RNA levels up to 20 uM by qRT-PCR method; assay type: functional, organism-based; conditions: Vero C1008
[10] = target: Nonstructural protein 5 (Dengue virus) (UniProt V5TFZ2); test: Inhibition of DENV3 NS5 RdRp using ss-RNA PolyC as template and GTP as substrate assessed as decrease in dsRNA levels after 1 hr in presence of tritonX100 by PicoGreen-based fluorescence assay; conditions: dengue virus type 3

## Nonstructural protein 5 (Dengue virus), V5TFZ2
[1]
  Vmax: 23.2 nM/min
[2]
  Km: 0.907 µM
[3]
  Vmax: 15.8 nM/min
[4]
  Km: 5.29 µM

## O=C(OC1=CS(=O)(=O)Nc2ccc(Oc3ccccc3Br)cc21)c1ccc(F)c(F)c1
[5]
  Activity: Active
[6]
  Activity: inactive
[7]
  Activity: inactive
[8]
  Activity: inactive
[9]
  Activity: inactive
[10]
  inhibition: Active
